Assay results as given in ChEMBL document CHEMBL1921769, “Synthesis and docking study of 2-phenylaminopyrimidine Abl tyrosine kinase inhibitors” (Bioorg Med Chem Lett, 2011).
pIC50: −log10 of the molar value.

What follows are compounds tested against Tyrosine-protein kinase ABL1 (Homo sapiens, UniProt P00519) (assay: Inhibition of Abl using DAIpYAAPFAKKK phosphopeptide as substrate by MALDI-MS analysis).
Chain of Tyrosine-protein kinase ABL1 (P00519 whole entry): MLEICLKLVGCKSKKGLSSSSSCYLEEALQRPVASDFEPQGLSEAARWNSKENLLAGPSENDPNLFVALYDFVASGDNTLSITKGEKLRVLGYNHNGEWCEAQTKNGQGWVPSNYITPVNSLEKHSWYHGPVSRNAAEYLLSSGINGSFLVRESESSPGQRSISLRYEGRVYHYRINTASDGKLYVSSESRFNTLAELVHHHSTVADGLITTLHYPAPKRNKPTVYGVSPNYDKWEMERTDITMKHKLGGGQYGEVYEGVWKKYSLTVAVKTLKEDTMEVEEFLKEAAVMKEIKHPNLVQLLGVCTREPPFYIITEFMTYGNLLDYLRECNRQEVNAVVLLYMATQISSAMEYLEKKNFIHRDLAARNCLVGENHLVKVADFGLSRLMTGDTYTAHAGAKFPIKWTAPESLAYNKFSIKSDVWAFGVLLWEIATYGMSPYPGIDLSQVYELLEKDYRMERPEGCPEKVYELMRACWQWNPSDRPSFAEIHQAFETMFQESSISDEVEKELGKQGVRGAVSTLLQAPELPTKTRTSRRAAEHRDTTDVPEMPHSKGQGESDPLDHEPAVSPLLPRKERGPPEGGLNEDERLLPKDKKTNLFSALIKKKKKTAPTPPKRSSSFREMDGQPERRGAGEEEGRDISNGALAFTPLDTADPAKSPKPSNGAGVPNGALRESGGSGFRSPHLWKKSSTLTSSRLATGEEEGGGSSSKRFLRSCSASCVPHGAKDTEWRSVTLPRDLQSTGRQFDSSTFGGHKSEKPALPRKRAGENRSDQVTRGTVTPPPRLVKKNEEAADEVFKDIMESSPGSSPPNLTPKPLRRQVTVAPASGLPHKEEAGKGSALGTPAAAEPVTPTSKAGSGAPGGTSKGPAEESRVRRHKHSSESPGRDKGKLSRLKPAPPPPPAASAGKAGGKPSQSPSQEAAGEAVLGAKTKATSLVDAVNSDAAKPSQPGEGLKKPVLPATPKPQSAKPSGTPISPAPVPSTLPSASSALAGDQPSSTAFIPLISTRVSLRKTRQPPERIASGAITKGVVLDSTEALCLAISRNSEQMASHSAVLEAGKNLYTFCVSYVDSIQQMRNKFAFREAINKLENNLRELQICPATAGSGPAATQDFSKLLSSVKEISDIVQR

First: CSc1cccc(C(=O)Nc2ccc(C)c(Nc3nccc(-c4cccnc4)n3)c2)c1
Second: Cc1ccc(NC(=O)c2ccccc2)cc1Nc1nccc(-c2cccnc2)n1
The pIC50 of the first is 1.06 log units higher: 5.96 for the first, 4.90 for the second. The first is the more potent here.

`Cc1ccc(NC(=O)c2ccc(N)c(N)c2)cc1Nc1nccc(-c2cccnc2)n1` showed a pIC50 of under 4.60.
